The text below walks through data of PubChem BioAssay (NCI).

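Protocol summary: plate cells (96-well), add compound at 5 concentrations, incubate 48 h, interpolate endpoints linearly. TGI: concentration producing complete growth inhibition.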 Where a SMILES comes first, the peptide text is derived from it. [ ]: non-standard residue; d: D form. The star is where a group is joined. ξ: configuration not given here. NMeY = CN[C@@H](Cc1ccc(O)cc1)C(=O)O; Cbz = O=C(OCc1ccccc1)*; ξA = CC(N)C(=O)O

Among the test systems are BT-549 breast; HCT-116 colon; HOP-62 NSCLC; KM12 colon; MOLT-4 leukemia; OVCAR-3 ovarian; SK-MEL-28 melanoma; SNB-19 CNS; SR leukemia; U251 CNS.
What all share (assay): inhibition of tumour cell growth, NCI panel, 48 h

As to `COc1ccc(CNc2nc(NCc3ccc(OC)cc3)nc(NC3CCCCC3)n2)cc1`, the TGI in the test with BT-549 breast is 37.9 µM; with HCT-116 colon it was 11.7 µM; in the test with HOP-62 NSCLC, greater than 100 µM; with KM12 colon, 5.47 µM; in the test on MOLT-4 leukemia it was greater than 100 µM; in the test on OVCAR-3 ovarian, 6.24 µM. For the same molecule, the TGI with SK-MEL-28 melanoma is greater than 100 µM; with SNB-19 CNS it was 5.96 µM; in the test on SR leukemia it was greater than 100 µM; with U251 CNS, greater than 100 µM.

On to `Cc1cccc(NC(=O)CC(=O)N2N=C(N3c4ccccc4Sc4ccccc43)CC2c2ccccc2)c1` (stereo not given), for which the TGI with BT-549 breast, in the test on HCT-116 colon, in the test on HOP-62 NSCLC, in the test with KM12 colon, with MOLT-4 leukemia and in the test with OVCAR-3 ovarian was greater than 100 µM each time. For the same molecule, the TGI in the test with SK-MEL-28 melanoma, with SNB-19 CNS, with SR leukemia and in the test with U251 CNS was greater than 100 µM throughout.

On to `COc1cc(S(=O)(=O)Nc2nc(-c3ccc(N4C(=O)/C(=C/c5ccccc5)N=C4c4ccccc4)cc3)cs2)ccc1Cl`, for which the TGI in the test on BT-549 breast is 75 µM; with HCT-116 colon, greater than 100 µM; in the test with HOP-62 NSCLC, greater than 100 µM; in the test on KM12 colon, greater than 100 µM; in the test on MOLT-4 leukemia, greater than 100 µM; with OVCAR-3 ovarian, greater than 100 µM. Besides, the TGI with SK-MEL-28 melanoma, in the test on SNB-19 CNS, in the test with SR leukemia and in the test on U251 CNS was greater than 100 µM throughout.

As for `CC(=O)N[C@@H](Cc1ccc(O)cn1)C(=O)NCc1ccc2c(c1)OCO2`, the TGI with BT-549 breast, in the test with HCT-116 colon, in the test with HOP-62 NSCLC, with KM12 colon, in the test on MOLT-4 leukemia and in the test with OVCAR-3 ovarian was greater than 100 µM each time. Also, the TGI in the test on SK-MEL-28 melanoma, in the test on SNB-19 CNS, with SR leukemia and with U251 CNS was greater than 100 µM throughout.

`c1ccc2c(c1)CC1c3[nH]c4ccccc4c3CCN21` (stereo not given): the TGI in the test on BT-549 breast, with HCT-116 colon, with HOP-62 NSCLC, in the test with KM12 colon, in the test with MOLT-4 leukemia and with OVCAR-3 ovarian was greater than 10 µM throughout. Further, the TGI in the test on SK-MEL-28 melanoma, in the test with SNB-19 CNS, with SR leukemia and in the test on U251 CNS was greater than 10 µM in each case.

Regarding `COc1ccc(C[C@@H](C(=O)NCC(N)=O)N(C)C(=O)[C@@H]2CCCN2C(=O)[C@H](CC(C)C)NC(=O)C(C)NC(=O)OCc2ccccc2)cc1` (stereo not given in full) (Cbz-[ξA]LP[NMeY](Me)G-NH2), the TGI in the test with BT-549 breast, with HCT-116 colon, with HOP-62 NSCLC, in the test on KM12 colon, in the test on MOLT-4 leukemia and in the test with OVCAR-3 ovarian was greater than 100 µM each time. Moreover, the TGI with SK-MEL-28 melanoma, in the test on SNB-19 CNS, in the test on SR leukemia and in the test on U251 CNS was greater than 100 µM in each case.

On to `COc1cc(C(=O)Nc2nnc(S(N)(=O)=O)s2)cc(OC)c1OC`, for which the TGI with BT-549 breast, in the test on HCT-116 colon, in the test on HOP-62 NSCLC, in the test with KM12 colon, in the test on MOLT-4 leukemia and in the test with OVCAR-3 ovarian was greater than 100 µM in each case. The TGI in the test with SK-MEL-28 melanoma, in the test on SNB-19 CNS, with SR leukemia and in the test on U251 CNS was greater than 100 µM throughout.

As for `Cc1ccc2ccccc2c1CC1S(=O)(=O)OCCOS1(=O)=O`, the TGI in the test on BT-549 breast was 25.7 µM; in the test on HCT-116 colon it was 26 µM; with HOP-62 NSCLC, 28.5 µM; in the test on KM12 colon it was 29.3 µM; in the test with MOLT-4 leukemia, 27.5 µM; in the test on OVCAR-3 ovarian it was 19.5 µM. Further, the TGI was 32.8 µM with SK-MEL-28 melanoma, 25.9 µM in the test with SNB-19 CNS, 24.9 µM in the test with SR leukemia and 24.7 µM in the test with U251 CNS.

Consider `O=C1C/C(=C\O)C(=O)c2ccccc2N1`, for which the TGI in the test on BT-549 breast, in the test with HCT-116 colon, in the test on HOP-62 NSCLC, in the test on KM12 colon, with MOLT-4 leukemia and with OVCAR-3 ovarian was greater than 100 µM throughout. Further, the TGI in the test with SK-MEL-28 melanoma, in the test on SNB-19 CNS, in the test with SR leukemia and in the test with U251 CNS was greater than 100 µM throughout.

As to `O=c1oc2ccccc2cc1-c1nc2ccc([N+](=O)[O-])cc2o1`, the TGI in the test with BT-549 breast, with HCT-116 colon, in the test on HOP-62 NSCLC, with KM12 colon, in the test with MOLT-4 leukemia and with OVCAR-3 ovarian was greater than 100 µM each time. The TGI was greater than 100 µM in the test on SK-MEL-28 melanoma, 68.5 µM with SNB-19 CNS, greater than 100 µM with SR leukemia and greater than 100 µM in the test on U251 CNS.

Take `COc1cn2c(cc1=O)COc1ccc(-c3ccccc3)cc1-2`: the TGI in the test on BT-549 breast is greater than 82.9 µM; with HCT-116 colon it was greater than 100 µM; in the test with HOP-62 NSCLC it was greater than 100 µM; in the test with KM12 colon, greater than 100 µM; with MOLT-4 leukemia, greater than 100 µM; with OVCAR-3 ovarian it was 98.8 µM. Also, the TGI with SK-MEL-28 melanoma, in the test with SNB-19 CNS, in the test on SR leukemia and with U251 CNS was greater than 100 µM throughout.

Turning to `CCOC(=O)c1cc(-c2ccc(OC)c(OC)c2)c[nH]1`, the TGI with BT-549 breast, with HCT-116 colon, in the test with HOP-62 NSCLC, with KM12 colon, in the test with MOLT-4 leukemia and in the test on OVCAR-3 ovarian was greater than 10 µM throughout. In addition, the TGI with SK-MEL-28 melanoma, with SNB-19 CNS, in the test on SR leukemia and with U251 CNS was greater than 10 µM throughout.

Consider `c1ccc2c3c(ccc2c1)CSCc1ccc2ccccc2c1-3`, for which the TGI in the test on BT-549 breast, in the test with HCT-116 colon, in the test with HOP-62 NSCLC, in the test with KM12 colon, in the test with MOLT-4 leukemia and in the test on OVCAR-3 ovarian was greater than 100 µM each time. For the same molecule, the TGI in the test with SK-MEL-28 melanoma, in the test on SNB-19 CNS, in the test with SR leukemia and in the test with U251 CNS was greater than 100 µM throughout.
